Assay results reported in publication PMC8280721, “Structural and Functional Analysis of a Multimodular Hyperthermostable Xylanase-Glucuronoyl Esterase from Caldicellulosiruptor kristjansonii” (Biochemistry, 2021).

Legend:
Format in all cases: binding
[1] = biological target: T1, CkGE15A (GE15A, glucuronoyl esterase domain of CkXyn10C-GE15A) (Caldicellulosiruptor acetigenus, UniProt E4S6E9); assay: DSF (Tycho NT.[…]); settings: 10000 µM; 0.5 mg/mL protein, 50 mM MOPS pH 7.2; second inflection point; no-ligand control Ti2 81.3 ± 0.37 °C
T1 construct: gene Calkr_2245; isolated CE15 domain (entire GE domain Thr1341-Arg1685 seen in structure); E. coli BL21(DE3), pET28a-TEVc; full-length protein 2159 residues

[2] = biological target: T2, CBM9.3 (CkCBM9.3, third CBM9 domain of CkXyn10C-GE15A) (Caldicellulosiruptor acetigenus, UniProt E4S6E9); assay: DSF (Tycho NT.[…]); settings: 100000 µM; 0.5 mg/mL protein, 50 mM Tris pH 8, 100 mM NaCl; 100 mM ligand; no-ligand control Ti 61.0 ± 0.88 °C
T2 construct: gene Calkr_2245; isolated CBM9.3 domain (Lys1072-Leu1252) plus C-terminal linker Lys1253-Pro1265; N-terminal His6 tag and TEV site (not seen in density); E. coli BL21(DE3), pET28a-TEVc; full-length protein 2159 residues

[3] = biological target: T2, CBM9.3 (CkCBM9.3, third CBM9 domain of CkXyn10C-GE15A); assay: X-ray crystallography (soak […], […] min); settings: crystal at pH 4.2; aromatic clamp Tyr89/Trp191

T2 sequence (E4S6E9 entry or part of it): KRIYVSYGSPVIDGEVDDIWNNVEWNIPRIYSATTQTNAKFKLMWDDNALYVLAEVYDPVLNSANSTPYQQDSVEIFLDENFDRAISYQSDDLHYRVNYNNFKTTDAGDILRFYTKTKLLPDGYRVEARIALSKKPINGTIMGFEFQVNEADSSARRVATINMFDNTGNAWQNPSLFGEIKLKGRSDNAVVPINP
T1 sequence (E4S6E9 entry or part of it): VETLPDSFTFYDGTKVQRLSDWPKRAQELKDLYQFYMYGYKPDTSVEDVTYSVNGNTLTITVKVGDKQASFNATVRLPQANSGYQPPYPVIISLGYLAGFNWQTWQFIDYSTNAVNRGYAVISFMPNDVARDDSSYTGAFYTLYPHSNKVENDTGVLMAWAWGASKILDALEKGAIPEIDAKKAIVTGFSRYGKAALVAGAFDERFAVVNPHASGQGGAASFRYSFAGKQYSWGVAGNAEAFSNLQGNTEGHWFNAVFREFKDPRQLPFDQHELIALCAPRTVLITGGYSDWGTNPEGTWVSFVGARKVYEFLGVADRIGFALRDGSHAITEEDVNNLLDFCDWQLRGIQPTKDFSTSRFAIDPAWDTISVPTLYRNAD

Compound | Ti2 (°C) ± SD [1] | Ti (°C) ± SD [2] | X-ray crystallography (soak 500 mM, 5 min) [3]
O=C(OCc1ccccc1)[C@H]1OC(O)[C@H](O)[C@@H](O)[C@@H]1O (stereo partly shown) [benzylglucuronate] | 79.3 ± 0.49 °C | – | –
OC[C@H]1OC(O)[C@H](O)[C@@H](O)[C@@H]1O (stereo partly shown) [glucose] | – | 66.7 ± 0.195 °C | we obtained structures with bound glucose and cellobiose and also with cellotriose
aldopentauronic acid | 79.2 ± 0.49 °C | – | –
